These are literature values, as cited in patent US20180116920A1, “MULTI-STEP PROCESS FOR NO PRODUCTION” (BSN medical GmbH, priority 2015, published 2018).

The conditions of data set [1]: generally assumed.

Regarding `O=C1O[C@H]([C@@H](O)CO)C(O)=C1O` [ascorbic acid], the standard redox potential (at pH 7 and 25° C.) is −0.04 V. On to nitrogen monoxide, for which the “maximum solubility of NO in aqueous solution” value in data set [1] is “approximately 2 mM”. For `N[C@@H](CS)C(=O)O` [cysteine], the redox potential (cysteine-cystine, 25° C., pH 7.0) is reported as −0.2 Volt.
